# In patent publication US20240400986A1, “MEMBRANE BOUND COMPOSITIONS AND METHODS RELATING TO SAME” (FLAGSHIP PIONEERING INNOVATIONS VII, LLC, priority 2021, published 2024):
# Peptide text beside a SMILES is read from it. * marks the point of attachment. Cbz = O=C(OCc1ccccc1)*
# How the values were obtained:
# neuronal cells [1] = test: Live microscopy of neuronal gigasome generation; assay type: cell-based, human; conditions: 0.1 M MG-132; live time-lapse microscopy; compared to DMSO control
# Description: Cells were stained with Hoechst 33342 to visualize nuclei and nuclear material, CellTracker Green to visualize cytoplasm, and MitoTracker Deep Red to visualize mitochondria. Gigasome production was then induced with various drugs as described in Example 1. Cell cultures were imaged every 15-30 minutes under a time lapse for up to 48 hours (FIGS. 1A and 1B). For image analysis, ImageJ and Zeiss ZEN Blue software was used. Gigasomes were identified and quantified as distinct circular/spherical vesicles in the extracellular space of the neurons, between 1-20 μm in diameter. Gigasomes were identified based on having positive neuronal cytoplasmic signal and negative Hoechst 33342 signal. The presence of mitochondria in gigasomes was measured via respective fluorescent signal.
# Time-lapse montages were produced and edited to show the formation of gigasomes from parent neuronal cells after treatment with […] MG-132 (FIGS. 1A and 1B). Gigasomes and parent cells were identified and tracked throughout the duration of the time lapse. In some experiments, gigasomes produced by parent cells in MG-132 treatment groups were identified.
# neuronal cells [2] = test: Gigasome-mediated extraction of exogenously added Tau fibrils (live plated cells and culture media); assay type: cell-based, human
# Description: P301S mutant Tau fibrils conjugated to the fluorescent probe ATTO 488 (Table 12) were resuspended at 50 nM in reduced serum-containing media and added to half of the cell-containing wells for 3 hours at 37° C. Following Tau fibrils uptake, cells were trypsinized to remove excess Tau fibrils attached to the cell surface, labeled with Hoechst 33342 to visualize nuclei and CellTracker Orange to visualize the cytoplasm and plated in a new poly-L-lysine-coated 24-well glass bottom plates. Cells were allowed to attach (2-3 hours), before addition of 0.1 μM MG-132 in reduced serum-containing media for additional 18-20 h.
# For analysis, 10-15×16-bit images per well were captured with a 20× objective and processed for analysis of gigasome production. Composite images were separated in the different channels. The background was subtracted from the green Tau fibrils cargo channel, as described Example 13.a and the signal thresholded using the “Yen” autothreshold algorithm. The cargo signal (integrated density) in the green channel was measured and normalized to the number of nuclei counted in each field in the Tau-F conditions. […] The quantity or distribution of objects obtained from the particle analysis was divided by the number of cells counted in each field to obtain a normalized quantity or distribution. […]
compound,measurement,setting,value
"CC(C)C[C@@H](C=O)NC(=O)[C@H](CC(C)C)NC(=O)[C@H](CC(C)C)NC(=O)OCc1ccccc1 [MG-132, reference compound] (Cbz-Leu-Leu-Leu-aldehyde)",gigasome production,neuronal cells [1],increase
same,gigasomes per 1000 cells,neuronal cells [2]; gigasomes harvested from cell culture media (FIG. 8E),approximately 4.5 per 1000 cells
same,gigasomes per 1000 cells,"neuronal cells [2]; plated live cells, Tau fibrils 50 nM 3 h, MG-132 0.1 μM 18-20 h (FIG. 8C)",approximately 325 per 1000 cells
